In patent US20200223826A1, “Glucose-6-Phosphate Dehydrogenase (G6PD)-Modulating Agents And Methods Of Treating G6PD Deficiency” (The Board of Trustees of the Leland Stanford Junior …, priority 2017, published 2020):

Key:
[1] = molecular target: T1, Canton G6PD in SH-SY5Y cells (Homo sapiens, UniProt P11413, R459L); experiment: G6PD activity of SH-SY5Y cells expressing Canton variant; type: cell-based
T1 construct: expressed in transfected cells; host or cells: SH-SY5Y neuroblastoma cells
Procedure: Enzyme activity was measured by monitoring NADPH production, which was coupled with diaphorase converting resazurin to fluorescent resorufin (excitation at 565 nm and emission at 590 nm); fluorescent signal was thus proportional to G6PD activity. Assays were performed at 25° C. and run for 5 minutes in buffer containing 50 mM Tris (pH 7.4), 0.5 mM EDTA, 3.3 mM MgCl2, 1 U/ml diaphorase, 0.1 mM resazurin. 10 ng of recombinant enzymes or 10 μg of cell lysates was used for the assay with 10 μM NADP^+ (Sigma) as cofactor and 100 μM G6P (Sigma) as substrate. Steady-state kinetic parameters were obtained by varying concentrations of NADP^+ (0-10 μM) with a constant concentration of G6P (100 μM) and similarly for G6P (0-100 μM) with a constant concentration of NADP^+ (10 μM) with 10 ng of recombinant enzymes. Data analysis was performed using GraphPad Prism software v.6 (GraphPad Software, La Jolla, Calif. USA). Kinetic parameters were obtained by fitting the data to the Michaelis-Menten equation.
Prior to the cellular-based assays using SH-SH5Y cells, duration of overexpression of WT G6PD and Canton variant was examined by transfecting the cells seeded in a 12-well plate. The genes encoding human WT G6PD and Canton variant were first PCR-amplified, which was then inserted into pcDNA 3.1/myc-His C (ThermoFisher Scientific) using HindIII and XhoI. […]

[2] = tested on: lymphocytes carrying the Canton variant; experiment: Glutathione (GSH) measurement in lymphocytes; type: cell-based, human; settings: treatment with AG1 for 24 hours
Procedure: Total glutathione level was measured using a Total Glutathione Quantification Kit (Dojindo), according to the manufacturer's instructions. The assay utilized DTNB (5,5′-dithio-bis-(2-nitrobenzoic acid)) that reacts with glutathione to produce 5-mercapto-2-nitrobenzoic acid, a yellow colored product. Cells were subjected to serum starvation (50-75%) for 48 hours to induce oxidative stress and treated with the compound for 24 hours before measurement. The absorbance was read at 412 nm.

zebrafish embryos = experiment: NADPH levels in lysates of pooled zebrafish embryos; type: in vivo; settings: lysates of pooled AG1-treated embryos
Procedure: Embryos were dechorinated with pronase at 24 hours post fertilization (hpf) and treated with 50 μg/ml of chloroquine and/or AG1 by directly adding the compounds to the well. For ROS measurements, embryos were incubated with compounds for 2 hours, and then the ROS detecting reagent (CM-H2DCFDA) was added at a final concentration of 500 ng/ml to the well for a total treatment time of 5 hours. One embryo was placed to each well of a black, opaque 96-well plate. The florescence was analyzed with excitation/emission at 485/525 nm. After ROS assays, embryos at about 32 hpf were pooled and lysed in buffer containing 50 mM Tris (pH 7.4), 150 mM NaCl, 1 mM EDTA, 0.1% NP-40, and protease inhibitor cocktail, which was followed by three cycles of freeze and thawing in liquid nitrogen. The lysate was centrifuged at 14,000 rpm at 4° C. for 15 minutes. Total protein concentration in the supernatants (total lysate) was determined by Bradford method. 50 μg of total lysate was loaded onto 10% SDS-PAGE gels and the protein level was examined by Western blot using anti-G6PD antibody (Abcam (G6PD: AB87230)). 10 μg of total lysate was used for enzymatic assay. 50 μg of the lysate was used to measure NADPH levels using a NADPH quantification kit (Biovision), according to the manufacturer's instructions.

human erythrocytes = experiment: ROS levels in erythrocytes under oxidative stressors; type: cell-based; settings: drug-induced oxidative stress
Procedure: De-identified blood samples were obtained from the Stanford Blood Center. Erythrocytes were collected by filtering the samples through a cellulose slurry to remove platelets and leukocytes and then washed with saline. G6PD activity was measured (Beutler E. Red cell metabolism: A manual of biochemical methods (3rd edition). Grune & Stratton (1984)). […] A 5% erythrocyte suspension was pre-incubated with 1-5 μM AG1 at 4° C. overnight, which was followed by treatment with (or without) either 1 mM chloroquine (CQ) or 1 mM diamide for 3-4 hours at 37° C. (for hemolysis assay with chloroquine, the mixture was incubated under light). Then centrifugation at 1,000 rpm for 5 minutes was followed. Hemoglobin release in the supernatant was monitored by measuring absorbance at 540 nm. […] After wash, the samples were lysed with 0.1% Triton X-100 (final concentration), and the florescence was analyzed with excitation/emission at 485/525 nm. GSH measurement was determined using a Cayman glutathione assay kit (Cayman Chemicals, 703002). […] The absorbance was read at 412 nm. For storage assay, a 5% erythrocyte suspension was stored at 4° C. with and without 1 μM AG1, and hemolysis and G6PD activity were monitored every week for 28 days to examine whether AG1 improves preservation of erythrocytes over time. Protein leakage was also examined by measuring the absorbance of the supernatant of samples at 280 nm. […]

[3] = tested on: SH-SY5Y cells expressing the Canton variant; experiment: Viability of SH-SY5Y cells expressing Canton variant; type: cell-based, human
Procedure: Prior to the cellular-based assays using SH-SH5Y cells, duration of overexpression of WT G6PD and Canton variant was examined by transfecting the cells seeded in a 12-well plate. The genes encoding human WT G6PD and Canton variant were first PCR-amplified, which was then inserted into pcDNA 3.1/myc-His C (ThermoFisher Scientific) using HindIII and XhoI. 0.5 μg of cDNA and 1.5 μg of lipofectamine (Invitrogen) were diluted in 50 μL of Opti-MEM medium respectively and incubated for 5 minutes. The diluted DNA was combined with diluted lipofectamine, which was followed by incubation for 20 minutes prior to the addition to cells.
Cell viability was measured using a Cell-Counting Kit-8 (CCK-8, Dojindo), utilizing WST-8 [2-(2-methoxy-4-nitrophenyl)-3-(4-nitrophenyl)-5-(2,4-disulfophenyl)-2H-tetrazolium monosodium salt, according to the manufacturer's instructions. Cells were subjected to serum starvation for 48 hours before measurement. Cells in 100 μL of medium per well were treated with 10 μL of CCK-8 solution and incubated for 2 hours at 37° C. The absorbance was read at 450 nm. Viability of lymphocytes was measured by staining with a 0.4% solution of trypan blue in buffered isotonic salt solution (pH 7.2). The viability was calculated as the number of viable cells (non-stained by the dye) divided by the total number of cells within the grids on the hemacytometer. […]

T1 sequence (P11413 2-515 R459L): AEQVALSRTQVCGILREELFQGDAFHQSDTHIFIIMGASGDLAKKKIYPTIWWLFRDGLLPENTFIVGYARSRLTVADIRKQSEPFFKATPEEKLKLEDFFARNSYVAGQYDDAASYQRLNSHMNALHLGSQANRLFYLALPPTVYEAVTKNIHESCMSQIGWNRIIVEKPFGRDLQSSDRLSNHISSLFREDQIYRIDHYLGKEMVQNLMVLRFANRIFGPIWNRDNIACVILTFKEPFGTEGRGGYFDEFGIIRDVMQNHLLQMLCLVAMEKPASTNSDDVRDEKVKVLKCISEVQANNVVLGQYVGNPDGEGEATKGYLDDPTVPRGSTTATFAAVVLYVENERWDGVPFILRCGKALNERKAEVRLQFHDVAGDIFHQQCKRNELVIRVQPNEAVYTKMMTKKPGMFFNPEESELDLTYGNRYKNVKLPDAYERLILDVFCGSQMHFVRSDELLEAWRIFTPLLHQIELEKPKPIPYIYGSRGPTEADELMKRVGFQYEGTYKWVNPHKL

`SCCNCCc1c[nH]c2ccccc12` [AG1, 2-[2-(1H-indol-3-yl)ethylamino]ethanethiol] was tested, and the G6PD activity [1] was “mild increase”, the “level of GSH” value [2] was “slightly increased” and the NADPH levels (zebrafish embryos) was “significant increase”. The ROS levels (human erythrocytes) was “reduced” and the viability [3] was “mild increase”.
